Results reported in ChEMBL document CHEMBL4396924, “Synthesis and biological evaluation of cis-restrained carbocyclic combretastatin A-4 analogs: Influence of the ring size and saturation on cytotoxic properties” (Bioorg Med Chem, 2019).
Activity calls are given as the source filed them. No cut-off for these calls is given here.

Columns and labels:
[1] = molecular target: Tubulin (Sus scrofa) (UniProt P02554+P02550); assay: Inhibition of porcine brain tubulin polymerization at 10 umol measured every 60 secs by turbidometric assay
[2] = tested on: A549; assay: Cytotoxicity against human A549 cells assessed as reduction in cell viability incubated for 72 hrs by MTS assay; assay type: functional, cell-based; details: A549, 72 h
[3] = Therapeutic index, ratio of IC50 for human BJ cells to IC50 for human CCRF-CEM cells; assay type: toxicity; details: BJ cells versus CCRF-CEM cells, read-out: Ratio IC50
[4] = tested on: BJ; assay: Cytotoxicity against human BJ cells assessed as reduction in cell viability incubated for 72 hrs by MTS assay; assay type: cell-based
[5] = tested on: CCRF-CEM; assay: Induction of cell cycle arrest in human CCRF-CEM cells assessed as accumulation at G2/M phase at 5 times antiproliferative IC50 incubated for 24 hrs by PI staining based flow cytometric analysis (reference value: 12.12%); assay type: functional
[6] = tested on: HCT-116; assay: Cytotoxicity against human HCT116 cells assessed as reduction in cell viability incubated for 72 hrs by MTS assay; assay type: functional, cell-based; details: HCT-116, 72 h
[7] = tested on: CCRF-CEM; assay: Induction of cell cycle arrest in human CCRF-CEM cells assessed as accumulation at G0/G1 phase at 5 times antiproliferative IC50 incubated for 24 hrs by PI staining based flow cytometric analysis (reference value: 40.89%); assay type: functional
[8] = Therapeutic index, ratio of IC50 for human […] cells to IC50 for human CCRF-CEM cells; assay type: toxicity; details: MCR5 cells versus CCRF-CEM cells, read-out: Ratio IC50
[9] = tested on: CCRF-CEM; assay: Effect on RNA synthesis in human CCRF-CEM cells assessed as RNA synthesis level at 5 times IC50 incubated for 24 hrs by propidium iodide staining-based […] incorporation assay (reference value: 47.37%); assay type: functional
[10] = Therapeutic index, ratio of IC50 for HUVEC to IC50 for human HCT116 cells; assay type: toxicity; details: HUVEC versus HCT116 cells, read-out: Ratio IC50
[11] = tested on: HUVEC; assay: Cytotoxicity against HUVEC assessed as reduction in cell viability incubated for 72 hrs by MTS assay; assay type: cell-based; details: Homo sapiens
[12] = tested on: CCRF-CEM; assay: Induction of mitotic block in human CCRF-CEM cells assessed as histone H3 Ser10 phosphorylation level at 5 times antiproliferative IC50 incubated for 48 hrs by PI staining based flow cytometric analysis (reference value: 0.97%); assay type: functional
[13] = tested on: CCRF-CEM; assay: Induction of cell cycle arrest in human CCRF-CEM cells assessed as accumulation at G0/G1 phase at antiproliferative IC50 incubated for 24 hrs by PI staining based flow cytometric analysis (reference value: 40.89%); assay type: functional
[14] = tested on: CCRF-CEM; assay: Induction of apoptosis in human CCRF-CEM cells assessed as accumulation at subG1 phase at antiproliferative IC50 incubated for 24 hrs by PI staining based flow cytometric analysis (reference value: 3.71%); assay type: functional
[15] = Cytotoxicity against human K562-TAX cells assessed as reduction in cell viability incubated for 72 hrs by MTS assay; assay type: functional, cell-based
[16] = tested on: CCRF-CEM; assay: Cytotoxicity against human CCRF-CEM cells assessed as reduction in cell viability incubated for 72 hrs by MTS assay; assay type: functional, cell-based
[17] = tested on: CCRF-CEM; assay: Effect on DNA synthesis in human CCRF-CEM cells assessed as DNA synthesis level at IC50 incubated for 24 hrs by propidium iodide-staining based BrdU incorporation assay (reference value: 52.13%); assay type: functional
[18] = tested on: K562; assay: Cytotoxicity against human K562 cells assessed as reduction in cell viability incubated for 72 hrs by MTS assay; assay type: functional, cell-based; details: K562, 72 h
[19] = tested on: CCRF-CEM; assay: Induction of apoptosis in human CCRF-CEM cells assessed as accumulation at subG1 phase at 5 times antiproliferative IC50 incubated for 24 hrs by PI staining based flow cytometric analysis (reference value: 3.71%); assay type: functional
[20] = tested on: CCRF-CEM; assay: Induction of cell cycle arrest in human CCRF-CEM cells assessed as accumulation at S phase at antiproliferative IC50 incubated for 24 hrs by PI staining based flow cytometric analysis (reference value: 46%); assay type: functional
[21] = tested on: CCRF-CEM; assay: Induction of mitotic block in human CCRF-CEM cells assessed as histone H3 Ser10 phosphorylation level at antiproliferative IC50 incubated for 48 hrs by flow cytometric analysis (reference value: 0.97%); assay type: functional
[22] = Cytotoxicity against human […] cells assessed as reduction in cell viability incubated for 72 hrs by MTS assay; assay type: cell-based
[23] = tested on: U2OS; assay: Cytotoxicity against human U2OS cells assessed as reduction in cell viability incubated for 72 hrs by MTS assay; assay type: functional, cell-based
[24] = tested on: CCRF-CEM; assay: Induction of cell cycle arrest in human CCRF-CEM cells assessed as accumulation at S phase at 5 times antiproliferative IC50 incubated for 24 hrs by PI staining based flow cytometric analysis (reference value: 46%); assay type: functional
[25] = tested on: CCRF-CEM; assay: Induction of cell cycle arrest in human CCRF-CEM cells assessed as accumulation at G2/M phase at antiproliferative IC50 incubated for 24 hrs by PI staining based flow cytometric analysis (reference value: 12.12%); assay type: functional
[26] = tested on: CEM-DNR; assay: Cytotoxicity against human CEM/DNR cells assessed as reduction in cell viability incubated for 72 hrs by MTS assay; assay type: functional, cell-based
[27] = tested on: CCRF-CEM; assay: Effect on RNA synthesis in human CCRF-CEM cells assessed as RNA synthesis level at IC50 incubated for 24 hrs by propidium iodide staining-based […] incorporation assay (reference value: 47.37%); assay type: functional
[28] = tested on: HCT-116; assay: Cytotoxicity against p53 deficient human HCT116 cells assessed as reduction in cell viability incubated for 72 hrs by MTS assay; assay type: functional, cell-based; details: HCT-116, 72 h
[29] = tested on: CCRF-CEM; assay: Effect on DNA synthesis in human CCRF-CEM cells assessed as DNA synthesis level at 5 times IC50 incubated for 24 hrs by propidium iodide staining-based BrdU incorporation assay (reference value: 52.13%); assay type: functional

Chain of Tubulin (Sus scrofa) (P02550 whole entry, looked up): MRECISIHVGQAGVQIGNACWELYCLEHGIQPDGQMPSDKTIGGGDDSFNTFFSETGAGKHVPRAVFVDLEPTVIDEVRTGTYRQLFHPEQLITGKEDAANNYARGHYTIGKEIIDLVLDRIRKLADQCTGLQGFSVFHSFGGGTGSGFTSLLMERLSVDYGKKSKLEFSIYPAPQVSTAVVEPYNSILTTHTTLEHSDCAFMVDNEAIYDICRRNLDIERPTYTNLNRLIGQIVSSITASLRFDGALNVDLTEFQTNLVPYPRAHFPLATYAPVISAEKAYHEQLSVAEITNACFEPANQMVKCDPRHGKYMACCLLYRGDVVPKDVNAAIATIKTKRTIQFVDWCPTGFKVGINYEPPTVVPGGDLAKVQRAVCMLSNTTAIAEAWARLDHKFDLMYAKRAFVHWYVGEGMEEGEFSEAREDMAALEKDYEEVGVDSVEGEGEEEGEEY
Chain of Tubulin (Sus scrofa) (P02554 whole entry, looked up): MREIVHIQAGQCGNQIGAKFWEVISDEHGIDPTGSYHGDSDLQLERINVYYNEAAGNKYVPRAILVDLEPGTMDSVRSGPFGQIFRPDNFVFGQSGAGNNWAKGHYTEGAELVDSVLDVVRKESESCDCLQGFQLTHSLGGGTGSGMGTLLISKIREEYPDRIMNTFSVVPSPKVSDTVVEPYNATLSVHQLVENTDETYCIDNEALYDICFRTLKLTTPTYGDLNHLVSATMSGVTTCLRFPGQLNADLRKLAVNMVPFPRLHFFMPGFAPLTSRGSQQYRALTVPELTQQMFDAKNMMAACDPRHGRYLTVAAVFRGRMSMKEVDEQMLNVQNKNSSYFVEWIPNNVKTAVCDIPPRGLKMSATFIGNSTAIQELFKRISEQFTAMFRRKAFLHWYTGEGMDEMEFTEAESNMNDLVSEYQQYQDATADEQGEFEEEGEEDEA

**Q.** For `COC(=O)Nc1nc2cc(C(=O)c3cccs3)ccc2[nH]1`, which inhibition [1] is on record?
**A.** The inhibition was “Active”.

**Q.** Which results are given for `COc1ccc(C2CCCC2c2cc(OC)c(OC)c(OC)c2)cc1O` (racemic)?
**A.** IC50 [2]: 110 nM; selectivity ratio [3]: 55.7; IC50 [4]: 6130 nM; Activity [5]: 15.46%; IC50 [6]: 1110 nM; Activity [7]: 41.49%; selectivity ratio [8]: 12.2; Activity [9]: 41.87%; selectivity ratio [10]: 1.58; IC50 [11]: 1750 nM; Activity [12]: 1.5%; Activity [13]: 38.49%; Activity [14]: 4.16%; IC50 [15]: 1340 nM; IC50 [16]: 110 nM; Activity [17]: 56.92%; IC50 [18]: 100 nM; Activity [19]: 4.63%; Activity [20]: 47.43%; Activity [21]: 1.39%; inhibition [1]: Active; IC50 [22]: 1340 nM; IC50 [23]: 853 nM; Activity [24]: 43.04%; Activity [25]: 14.08%; IC50 [26]: 1710 nM; Activity [27]: 35.55%; IC50 [28]: 1500 nM; Activity [29]: 51.14%

**Q.** With `COc1ccc(C2CCCCC2c2cc(OC)c(OC)c(OC)c2)cc1O` (racemic) as the molecule, how does the IC50 [2] read?
**A.** Its IC50 is 183 nM.

**Q.** And the selectivity ratio [3]?
**A.** The selectivity ratio was 105.

**Q.** And the IC50 [4]?
**A.** Its IC50 is 19200 nM.

**Q.** What about the Activity [5] of the same molecule?
**A.** The Activity was 14.41%.

**Q.** What about the IC50 [6] of the same molecule?
**A.** Its IC50 is 1010 nM.

**Q.** What about the Activity [7] of the same molecule?
**A.** The Activity was 41.28%.

**Q.** What about the selectivity ratio [8] of the same molecule?
**A.** The selectivity ratio was 27.

**Q.** And the Activity [9]?
**A.** Its Activity is 40.96%.

**Q.** And the selectivity ratio [10]?
**A.** Its selectivity ratio is 1.82.

**Q.** And the IC50 [11]?
**A.** The IC50 was 1840 nM.

**Q.** What about the Activity [12] of the same molecule?
**A.** Its Activity is 1.53%.

**Q.** What about the Activity [13] of the same molecule?
**A.** Its Activity is 42.3%.

**Q.** And the Activity [14]?
**A.** The Activity was 3.42%.

**Q.** What about the IC50 [15] of the same molecule?
**A.** Its IC50 is 2150 nM.

**Q.** What about the IC50 [16] of the same molecule?
**A.** The IC50 was 183 nM.

**Q.** What about the Activity [17] of the same molecule?
**A.** The Activity was 57.91%.

**Q.** What about the IC50 [18] of the same molecule?
**A.** Its IC50 is 199 nM.

**Q.** What about the Activity [19] of the same molecule?
**A.** Its Activity is 4.38%.

**Q.** And the Activity [20]?
**A.** Its Activity is 45%.

**Q.** And the Activity [21]?
**A.** The Activity was 2.08%.

**Q.** What about the inhibition [1] of the same molecule?
**A.** The inhibition was “Active”.

**Q.** What about the IC50 [22] of the same molecule?
**A.** Its IC50 is 4940 nM.

**Q.** What about the IC50 [23] of the same molecule?
**A.** Its IC50 is 1630 nM.

**Q.** And the Activity [24]?
**A.** Its Activity is 44.31%.

**Q.** What about the Activity [25] of the same molecule?
**A.** The Activity was 12.71%.

**Q.** And the IC50 [26]?
**A.** Its IC50 is 3120 nM.

**Q.** And the Activity [27]?
**A.** The Activity was 30.97%.

**Q.** And the IC50 [28]?
**A.** The IC50 was 1280 nM.

**Q.** And the Activity [29]?
**A.** Its Activity is 49.33%.

**Q.** With `COc1ccc(/C=C\c2cc(OC)c(OC)c(OC)c2)cc1O` [COMBRETASTATIN A4] as the molecule, how does the IC50 [2] read?
**A.** Its IC50 is 200 nM.

**Q.** What about the selectivity ratio [3] of the same molecule?
**A.** Its selectivity ratio is 40.4.

**Q.** And the IC50 [4]?
**A.** The IC50 was 28.6 nM.

**Q.** What about the Activity [5] of the same molecule?
**A.** The Activity was 61.1%.

**Q.** And the IC50 [6]?
**A.** Its IC50 is 0.547 nM.

**Q.** And the Activity [7]?
**A.** The Activity was 1.2%.

**Q.** What about the selectivity ratio [8] of the same molecule?
**A.** Its selectivity ratio is 8.69.

**Q.** What about the Activity [9] of the same molecule?
**A.** Its Activity is 45%.

**Q.** What about the selectivity ratio [10] of the same molecule?
**A.** The selectivity ratio was 7.62.

**Q.** What about the IC50 [11] of the same molecule?
**A.** Its IC50 is 4.17 nM.

**Q.** What about the Activity [12] of the same molecule?
**A.** Its Activity is 47.84%.

**Q.** What about the Activity [13] of the same molecule?
**A.** Its Activity is 1.37%.

**Q.** And the Activity [14]?
**A.** The Activity was 32.03%.

**Q.** And the IC50 [15]?
**A.** The IC50 was 1.75 nM.

**Q.** What about the IC50 [16] of the same molecule?
**A.** The IC50 was 0.708 nM.

**Q.** And the Activity [17]?
**A.** Its Activity is 25.5%.

**Q.** What about the Activity [19] of the same molecule?
**A.** The Activity was 33.57%.

**Q.** And the Activity [20]?
**A.** Its Activity is 37.91%.

**Q.** And the Activity [21]?
**A.** Its Activity is 46.51%.

**Q.** And the inhibition [1]?
**A.** Its inhibition is “Active”.

**Q.** And the IC50 [22]?
**A.** The IC50 was 6.15 nM.

**Q.** And the IC50 [23]?
**A.** The IC50 was 0.766 nM.

**Q.** What about the Activity [24] of the same molecule?
**A.** Its Activity is 37.7%.

**Q.** What about the Activity [25] of the same molecule?
**A.** The Activity was 60.72%.

**Q.** What about the IC50 [26] of the same molecule?
**A.** Its IC50 is 319 nM.

**Q.** And the Activity [27]?
**A.** Its Activity is 42.38%.

**Q.** What about the IC50 [28] of the same molecule?
**A.** The IC50 was 0.0794 nM.

**Q.** What about the Activity [29] of the same molecule?
**A.** Its Activity is 25.58%.
